Source: patent publication US20230116602A1, “MCL1 INHIBITORS AND USES THEREOF” (California Institute of Technology, priority 2019, published 2023)
Where two headings read alike, the source gives them in different places.

How the values were obtained:
BCLXL = BCLXL (Homo sapiens, UniProt Q07817); test: BCLXL affinity assay (competition binding, qPCR readout); conditions: recombinant BCLXL, 11-point 3-fold dilution series
Procedure: (§1) Recombinant MCL1, BCL2 and BCXL proteins were prepared in either an E. coli host derived from the BL21 strain or in HEK-293 cells. The recombinant proteins were subsequently tagged with DNA for qPCR detection. Streptavidin-coated magnetic beads were treated for 30 minutes at room temperature with the respective biotinylated peptide ligands for each recombinant protein to generate affinity resins for the assays. The liganded beads were blocked with excess biotin and washed with blocking buffer (SeaBlock (Pierce), 1% BSA, 0.05% Tween 20, 1 mM DTT) to remove unbound ligand and to reduce nonspecific binding. Binding reactions were assembled by combining recombinant protein, liganded affinity beads, and test compounds in 1× binding buffer (20% SeaBlock, 0.17×PBS, 0.05% Tween 20, 6 mM DTT). Test compounds were prepared as 111X stocks in 100% DMSO. The compounds were then diluted directly into the assays such that the final concentration of DMSO was 0.9%. The assay plates were incubated at room temperature with shaking for 1 hour and the affinity beads were washed with wash buffer (1×PBS, 0.05% Tween 20). The beads were then re-suspended in elution buffer (1×PBS, 0.05% Tween 20, 0.5 μM non-biotinylated affinity ligand) and incubated at room temperature with shaking for 30 minutes. The recombinant protein concentration in the eluates was measured by qPCR. Kds were determined using an 11-point 3-fold compound dilution series with three DMSO control points.

[1] = tested on: drug-resistant cell lines of Table 3; test: Cell line growth retardation assay, resistant cohort; format: cell-based, Human; conditions: Homo sapiens, 144 h; arithmetic mean of IC50s over the resistant cohort of Table 3, 6 days growth; read-out: AvgRes IC50
Procedure, shortened: (§2)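 Over 6 days of treatment at six concentrations (0.0032–10 μM), given after a 24 h post-seeding rest, population doublings were counted by imaging against a pre-dose baseline and compared with vehicle. Per-line IC50 values came from dose-response fits; cohort averages used arithmetic means, with sensitive/resistant grouping based on response to reference MCL1 inhibitors.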

BCL2 = BCL2 (Homo sapiens, UniProt P10415); test: BCL2 affinity assay (competition binding, qPCR readout); conditions: recombinant BCL2, 11-point 3-fold dilution series
Chain of BCL2 (P10415 whole entry): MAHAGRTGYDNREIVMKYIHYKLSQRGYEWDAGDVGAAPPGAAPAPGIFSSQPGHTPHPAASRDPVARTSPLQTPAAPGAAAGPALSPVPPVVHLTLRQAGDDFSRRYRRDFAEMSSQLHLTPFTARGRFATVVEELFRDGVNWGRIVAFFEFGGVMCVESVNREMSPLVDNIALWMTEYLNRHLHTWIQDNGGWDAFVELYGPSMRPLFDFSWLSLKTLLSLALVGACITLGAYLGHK
Procedure: as §1

[2] = tested on: drug-sensitive cell lines of Table 3; test: Cell line growth retardation assay, sensitive cohort; format: cell-based, Human; conditions: for IC50: arithmetic mean of IC50s over the sensitive cohort of Table 3, 6 days growth, read-out: AvgSen IC50; for Fold Diff: average IC50 of resistant cohort divided by average IC50 of sensitive cohort
Procedure, shortened: as §2

MCL1 = MCL1 (Homo sapiens, UniProt Q07820); test: MCL1 affinity assay (competition binding, qPCR readout); conditions: recombinant MCL1, 11-point 3-fold dilution series
Chain of MCL1 (Q07820 whole entry): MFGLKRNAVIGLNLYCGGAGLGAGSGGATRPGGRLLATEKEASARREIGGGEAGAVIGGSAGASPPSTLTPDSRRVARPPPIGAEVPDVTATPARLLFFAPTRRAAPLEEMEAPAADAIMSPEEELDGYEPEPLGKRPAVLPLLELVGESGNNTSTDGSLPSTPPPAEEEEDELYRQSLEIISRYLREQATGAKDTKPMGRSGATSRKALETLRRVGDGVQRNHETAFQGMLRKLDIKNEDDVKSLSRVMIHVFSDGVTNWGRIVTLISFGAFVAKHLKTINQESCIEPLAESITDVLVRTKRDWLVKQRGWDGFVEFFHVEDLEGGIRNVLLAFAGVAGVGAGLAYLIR
Procedure, shortened: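 Kds derived from an 11-point 3-fold compound series measured by qPCR of protein eluted from ligand beads. Recombinant, DNA-tagged protein from E. coli or HEK-293 was mixed with compound and peptide-liganded beads in SeaBlock/PBS/Tween/DTT buffer for 1 hour at room temperature (0.9% DMSO).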

Chain of BCLXL (Q07817 whole entry): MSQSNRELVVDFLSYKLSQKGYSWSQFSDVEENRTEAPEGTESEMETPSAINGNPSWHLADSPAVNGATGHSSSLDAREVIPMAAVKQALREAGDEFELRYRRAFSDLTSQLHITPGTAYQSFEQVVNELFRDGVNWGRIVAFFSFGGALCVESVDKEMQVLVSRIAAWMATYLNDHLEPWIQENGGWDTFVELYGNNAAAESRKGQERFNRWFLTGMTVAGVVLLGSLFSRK

Structure (SMILES) | Kd (BCLXL) | IC50 [1] | Kd (BCL2) | IC50 ([2]; Homo sapiens, 144 h) | Fold Diff [2] | Kd (MCL1) | IC50 [2]
COCCOc1ccc(-c2c(-c3cccc(OC)c3)ncc3snc(O[C@H](Cc4ccccc4OCc4ccnc(-c5ccccc5OC)n4)C(=O)O)c23)c(C)c1Cl (atropisomer, axis not shown) [Compound 44] | > 1500 nM | > 5000 nM | > 1500 nM | > 5000 nM | − (“−” represents a fold difference less than 10) | ≤ 100 nM | –
COc1cccc(-c2ncc3snc(O[C@H](Cc4ccccc4OCc4ccnn4CC(F)(F)F)C(=O)O)c3c2-c2ccc(OCCN3CCN(C)CC3)c(Cl)c2C)c1 (atropisomer, axis not shown) [Compound 23] | > 1500 nM | > 5000 nM | > 1500 nM | ≤ 1000 nM | + (“+” represents a fold difference of 10 or more) | 101 to 500 nM | –
COc1cc(-c2nccc(COc3ccccc3C[C@@H](Oc3nsc4cnc(-c5cccc(F)c5)c(-c5ccc(OCCN6CCN(C)CC6)c(Cl)c5C)c34)C(=O)O)n2)ccn1 (atropisomer, axis not shown) [Compound 71] | > 1500 nM | > 5000 nM | > 1500 nM | ≤ 1000 nM | + (“+” represents a fold difference of 10 or more) | 101 to 500 nM | –
Cc1cc2cccc(-c3ncc4snc(O[C@H](Cc5ccccc5OCc5ccnn5CC(F)(F)F)C(=O)O)c4c3-c3ccc(OCCN4CCN(C)CC4)c(Cl)c3C)c2[nH]1 (atropisomer, axis not shown) [Compound 17] | > 1500 nM | > 5000 nM | > 1500 nM | > 5000 nM | − (“−” represents a fold difference less than 10) | 501 to 1500 nM | –
COc1cccc(-c2ncc3snc(O[C@H](Cc4ccccc4OCc4ccnc(-c5ccccc5OC)n4)C(=O)O)c3c2-c2ccc(OCCN3CCCCC3)c(Cl)c2C)c1 (atropisomer, axis not shown) [Compound 43] | > 1500 nM | > 5000 nM | > 1500 nM | 1000 to 5000 nM | − (“−” represents a fold difference less than 10) | ≤ 100 nM | –
COc1cccc(-c2ncc3snc(O[C@H](Cc4ccccc4OCc4ccnc(-c5ccccc5OC)n4)C(=O)O)c3c2-c2ccc(OCCN3CCCC3)c(Cl)c2C)c1 (atropisomer, axis not shown) [Compound 50] | > 1500 nM | > 5000 nM | > 1500 nM | ≤ 1000 nM | + (“+” represents a fold difference of 10 or more) | ≤ 100 nM | –
Cc1c(-c2c(-c3ccc(F)s3)ncc3snc(O[C@H](Cc4ccccc4OCc4ccnn4CC(F)(F)F)C(=O)O)c23)ccc(OCCN2CCN(C)CC2)c1Cl (single isomer, unassigned) [Compound 1] | > 1500 nM | > 5000 nM | > 1500 nM | – | − (“−” represents a fold difference less than 10) | > 1500 nM | > 5000 nM
COc1cccc(-c2ncc3snc(O[C@H](Cc4ccccc4OCc4ccnc(-c5ccccc5OC)n4)C(=O)O)c3c2-c2ccc(OC)c(Cl)c2C)c1 (atropisomer, axis not shown) [Compound 51] | > 1500 nM | > 5000 nM | > 1500 nM | 1000 to 5000 nM | − (“−” represents a fold difference less than 10) | ≤ 100 nM | –
COc1cccc(-c2ncc3snc(O[C@H](Cc4ccccc4OCc4ccnc(-c5ccccc5OC)n4)C(=O)O)c3c2-c2ccc(OCCCN(C)C)c(Cl)c2C)c1 (atropisomer, axis not shown) [Compound 47] | > 1500 nM | > 5000 nM | > 1500 nM | ≤ 1000 nM | + (“+” represents a fold difference of 10 or more) | ≤ 100 nM | –
COc1cccc(-c2ncc3snc(O[C@H](Cc4ccccc4OCc4ccnc(-c5ccccc5OC)n4)C(=O)O)c3c2-c2ccc(OC[C@H]3CCCN3C)c(Cl)c2C)c1 (atropisomer, axis not shown) [Compound 48] | > 1500 nM | – | > 1500 nM | – | – | ≤ 100 nM | –
COc1ccc(F)cc1-c1nccc(COc2ccccc2C[C@@H](Oc2nsc3cnc(C4CCC4)c(-c4ccc(OCCN5CCN(C)CC5)c(Cl)c4C)c23)C(=O)O)n1 (atropisomer, axis not shown) [Compound 73] | – | > 5000 nM | – | ≤ 1000 nM | + (“+” represents a fold difference of 10 or more) | ≤ 100 nM | –
COc1ccccc1-c1nccc(COc2ccccc2C[C@@H](Oc2nsc3cnc(-c4cccc(F)c4)c(-c4ccc(OCCN(C)C)c(Cl)c4C)c23)C(=O)O)n1 (atropisomer, axis not shown) [Compound 55] | – | > 5000 nM | – | ≤ 1000 nM | + (“+” represents a fold difference of 10 or more) | ≤ 100 nM | –
COc1cccc(-c2ncc3snc(O[C@H](Cc4ccccc4OCc4ccnc(N5CCC(OC(F)F)CC5)n4)C(=O)O)c3c2-c2ccc(OCCN3CCN(C)CC3)c(Cl)c2C)c1 (atropisomer, axis not shown) [Compound 63] | – | > 5000 nM | – | 1000 to 5000 nM | − (“−” represents a fold difference less than 10) | 501 to 1500 nM | –
COc1ncccc1-c1nccc(COc2ccccc2C[C@@H](Oc2nsc3cnc(-c4cccc(F)c4)c(-c4ccc(OCCN5CCN(C)CC5)c(Cl)c4C)c23)C(=O)O)n1 (atropisomer, axis not shown) [Compound 64] | – | > 5000 nM | – | > 5000 nM | − (“−” represents a fold difference less than 10) | 101 to 500 nM | –
COc1ccccc1-c1nccc(COc2ccccc2C[C@@H](Oc2nsc3cnc(-c4cnc(C)o4)c(-c4ccc(OCCN5CCN(C)CC5)c(Cl)c4C)c23)C(=O)O)n1 (atropisomer, axis not shown) [Compound 77] | – | > 5000 nM | – | 1000 to 5000 nM | − (“−” represents a fold difference less than 10) | ≤ 100 nM | –
COCc1ccccc1-c1nccc(COc2ccccc2C[C@@H](Oc2nsc3cnc(-c4cccc(OC)c4)c(-c4ccc(OCCN5CCN(C)CC5)c(Cl)c4C)c23)C(=O)O)n1 (atropisomer, axis not shown) [Compound 65] | – | > 5000 nM | – | ≤ 1000 nM | + (“+” represents a fold difference of 10 or more) | ≤ 100 nM | –
Cc1c(-c2c(-c3cnn(C)c3)ncc3snc(O[C@H](Cc4ccccc4OCc4ccnn4CC(F)(F)F)C(=O)O)c23)ccc(OCCN2CCN(C)CC2)c1Cl (atropisomer, axis not shown) [Compound 28] | > 1500 nM | – | > 1500 nM | – | – | 501 to 1500 nM | –
COc1ccccc1-c1nccc(COc2ccccc2C[C@@H](Oc2nsc3cnc(-c4cnc(C5CC5)o4)c(-c4ccc(OCCN5CCN(C)CC5)c(Cl)c4C)c23)C(=O)O)n1 (atropisomer, axis not shown) [Compound 78] | – | > 5000 nM | – | 1000 to 5000 nM | − (“−” represents a fold difference less than 10) | ≤ 100 nM | –
COc1cccc(-c2ncc3snc(O[C@H](Cc4ccccc4OCc4ccnc(OCCC(F)(F)F)n4)C(=O)O)c3c2-c2ccc(OCCN3CCN(C)CC3)c(Cl)c2C)c1 (atropisomer, axis not shown) [Compound 57] | – | > 5000 nM | – | ≤ 1000 nM | + (“+” represents a fold difference of 10 or more) | ≤ 100 nM | –
